Drawing on PubChem BioAssay (NCI), this text covers GI50 and TGI for twelve compounds.

Structures are written as SMILES.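 Assay format: 96-well plates, 48-hour exposure. At the GI50, growth is halved. TGI marks complete inhibition of growth.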

Among the test systems are RXF 393 renal; SR leukemia; CAKI-1 renal; HL-60(TB) leukemia; OVCAR-5 ovarian; SW-620 colon; MCF7 breast; M14 melanoma; EKVX NSCLC; SNB-75 CNS.
Holding throughout (assay): DTP human tumour cell line panel, 48 h

One may read the GI50 as the concentration that inhibits growth by half. What is called TGI is the concentration at which net growth stops. As to `O=CN1N=C(c2ccc(Nc3ccnc4cc(Cl)ccc34)cc2)CC1c1ccc(Cl)cc1` (configuration not stated), the GI50 in the assay on RXF 393 renal was 1.88 µM; with SR leukemia, 0.324 µM; in the assay on CAKI-1 renal it was 0.409 µM; in the assay on HL-60(TB) leukemia, 0.376 µM; with OVCAR-5 ovarian it was 6.46 µM; with SW-620 colon it was 0.478 µM. Also, the GI50 was 0.48 µM in the assay with MCF7 breast and 0.622 µM in the assay with M14 melanoma. Further, the TGI with RXF 393 renal, in the assay on SR leukemia, in the assay on CAKI-1 renal, in the assay on HL-60(TB) leukemia, with OVCAR-5 ovarian and in the assay on SW-620 colon was greater than 100 µM throughout. The TGI in the assay on MCF7 breast and in the assay on M14 melanoma was greater than 100 µM each time.

With `COc1ccc(CN=C(N)N=C(N)N)cc1OC`, the GI50 in the assay on EKVX NSCLC is 40.1 µM; with RXF 393 renal it was greater than 1000 µM; with CAKI-1 renal, greater than 1000 µM; with SNB-75 CNS, 192 µM; in the assay on HL-60(TB) leukemia, 706 µM; with OVCAR-5 ovarian, greater than 1000 µM. Moreover, the GI50 in the assay with SW-620 colon was greater than 1000 µM; with MCF7 breast, 855 µM; with M14 melanoma it was greater than 1000 µM. Also, the TGI with EKVX NSCLC, in the assay on RXF 393 renal, with CAKI-1 renal, in the assay on SNB-75 CNS, in the assay with HL-60(TB) leukemia and in the assay with OVCAR-5 ovarian was greater than 1000 µM throughout. Further, the TGI in the assay on SW-620 colon, with MCF7 breast and in the assay with M14 melanoma was greater than 1000 µM throughout.

For the compound `Clc1ccc(/C=C/c2nc(Cl)c(-c3ccc(Cl)cc3)c(Cl)n2)cc1`, the TGI in the assay with EKVX NSCLC is greater than 100 µM; in the assay on RXF 393 renal, greater than 100 µM; in the assay on CAKI-1 renal it was greater than 100 µM; with SNB-75 CNS, 64.5 µM; in the assay on HL-60(TB) leukemia, greater than 100 µM; in the assay on OVCAR-5 ovarian, greater than 100 µM. Also, the TGI with SW-620 colon, in the assay with MCF7 breast and in the assay on M14 melanoma was greater than 100 µM throughout.

On to `O=C1NC(SCc2ccc(F)cc2)=N/C1=C/c1cccc(OCc2ccc(Cl)cc2)c1`, for which the GI50 in the assay with EKVX NSCLC was 8.86 µM; with RXF 393 renal it was 9.22 µM; in the assay with SR leukemia, 5.05 µM; in the assay with SNB-75 CNS it was 10.1 µM; with HL-60(TB) leukemia, greater than 100 µM; in the assay on OVCAR-5 ovarian it was greater than 100 µM. In addition, the GI50 with SW-620 colon is 20 µM; in the assay on MCF7 breast, 19.7 µM; in the assay with M14 melanoma, 47.4 µM. The TGI in the assay on EKVX NSCLC is greater than 100 µM; in the assay with RXF 393 renal, 48.9 µM; in the assay with SR leukemia it was 76.2 µM; with SNB-75 CNS it was greater than 100 µM; in the assay on HL-60(TB) leukemia, greater than 100 µM; in the assay with OVCAR-5 ovarian, greater than 100 µM. Moreover, the TGI in the assay with SW-620 colon, with MCF7 breast and in the assay with M14 melanoma was greater than 100 µM throughout.

As for `C=C(C)C(=O)O[C@H]1CC2=CC(CC(C)=C[C@H]3OC(=O)C(=C)C13)OC2=O` (some centres not stated), the TGI is 43.8 µM in the assay with EKVX NSCLC; 34.4 µM in the assay on CAKI-1 renal; greater than 100 µM with SNB-75 CNS; 11.8 µM in the assay with HL-60(TB) leukemia; greater than 100 µM with OVCAR-5 ovarian; 36 µM in the assay with SW-620 colon. In addition, the TGI with MCF7 breast is 49.1 µM; in the assay with M14 melanoma it was greater than 100 µM.

For `COC1OC(C(C)O)C2OC(C)(C)OC12` (configuration not stated), the total growth inhibition concentration (TGI) in the assay with EKVX NSCLC, in the assay with SR leukemia, in the assay on CAKI-1 renal, with SNB-75 CNS, in the assay on HL-60(TB) leukemia and in the assay with OVCAR-5 ovarian was greater than 100 µM in each case. In addition, the TGI in the assay on SW-620 colon, in the assay with MCF7 breast and in the assay on M14 melanoma was greater than 100 µM in each case.

As for `Cc1ccc(-c2c3c(N)c4c(nc3nc3c2c(C)nn3-c2ccccc2)CCC4)cc1`, the GI50 in the assay with RXF 393 renal was 1.58 µM; with SR leukemia, 0.472 µM; with CAKI-1 renal it was 6.89 µM; with SNB-75 CNS, 2.07 µM; with HL-60(TB) leukemia, 2.07 µM; with OVCAR-5 ovarian, 5.69 µM. For the same compound, the GI50 was 2.6 µM in the assay on SW-620 colon, 1.75 µM in the assay on MCF7 breast and 6.25 µM with M14 melanoma. For the same compound, the TGI was 3.25 µM in the assay with RXF 393 renal; 9.61 µM in the assay on SR leukemia; 16.6 µM in the assay on CAKI-1 renal; 6.66 µM in the assay with SNB-75 CNS; 4.67 µM in the assay with HL-60(TB) leukemia; 13.1 µM in the assay on OVCAR-5 ovarian. The TGI in the assay on SW-620 colon came out at 9.57 µM; with MCF7 breast, 4.34 µM; in the assay on M14 melanoma, 20.1 µM.

For the compound `O=C1NC(c2ccccc2)N=C2Oc3ccccc3C=C12` (configuration not stated), the concentration for total growth inhibition (TGI) with EKVX NSCLC was greater than 100 µM; in the assay on RXF 393 renal it was greater than 100 µM; in the assay on SR leukemia it was greater than 100 µM; with CAKI-1 renal, 0.42 µM; in the assay with OVCAR-5 ovarian, greater than 100 µM; in the assay with SW-620 colon it was greater than 100 µM. Also, the TGI was greater than 100 µM with MCF7 breast and greater than 31.6 µM with M14 melanoma.

Take `O=C1NN=C(c2ccc([N+](=O)[O-])cc2)C1n1nc(-c2ccccc2)c2ccccc2c1=O` (configuration not stated): the TGI is greater than 100 µM in the assay with EKVX NSCLC; greater than 100 µM with RXF 393 renal; greater than 100 µM with SR leukemia; greater than 100 µM with CAKI-1 renal; greater than 100 µM in the assay on SNB-75 CNS; greater than 64.4 µM in the assay on HL-60(TB) leukemia. Besides, the TGI with OVCAR-5 ovarian, in the assay with SW-620 colon and with M14 melanoma was greater than 100 µM throughout.

Regarding `COc1cc2c(cc1OCCCCCn1c3ccccc3c3ccccc31)N=C[C@@H]1CCCN1C2=O`, the GI50 with EKVX NSCLC was 5.27 µM; in the assay on RXF 393 renal it was 4.34 µM; in the assay on SR leukemia, 15.4 µM; with CAKI-1 renal, 1.93 µM; in the assay with SNB-75 CNS it was 1.05 µM; with HL-60(TB) leukemia it was 1.72 µM. Moreover, the GI50 was 2.42 µM in the assay with OVCAR-5 ovarian and 2.33 µM with MCF7 breast. Moreover, the TGI with EKVX NSCLC was 18.7 µM; in the assay with RXF 393 renal, 16.4 µM; with SR leukemia, greater than 100 µM; with CAKI-1 renal, 4.58 µM; in the assay on SNB-75 CNS, 2.58 µM; in the assay with HL-60(TB) leukemia, 4.38 µM. For the same compound, the total growth inhibition concentration (TGI) was 5.49 µM in the assay with OVCAR-5 ovarian and 9.19 µM in the assay on MCF7 breast.

Consider `COc1ccc(C=C2C(=O)NC(=O)NC2=O)cc1OCc1ccccc1`, for which the GI50 in the assay on EKVX NSCLC is 85.2 µg/mL; in the assay with RXF 393 renal it was 12 µg/mL; in the assay with SNB-75 CNS it was 22.9 µg/mL; with SW-620 colon it was 50.7 µg/mL; with MCF7 breast, 59.6 µg/mL; in the assay on M14 melanoma, 28.1 µg/mL. The TGI in the assay on M14 melanoma is 82.5 µg/mL.

In the case of `NS(=O)(=O)c1ccc(N2N=C(c3cccs3)CC2c2ccccc2O)cc1` (configuration not stated), the GI50 in the assay with RXF 393 renal is 0.733 µM; with SR leukemia it was 1.36 µM; in the assay with CAKI-1 renal, 1.47 µM; in the assay with SNB-75 CNS, 0.437 µM; in the assay with OVCAR-5 ovarian it was 1.25 µM; in the assay with SW-620 colon it was 1.16 µM. Further, the figures for the GI50 in the assay with MCF7 breast and in the assay with M14 melanoma were 1.01 µM and 1.07 µM, respectively. The TGI in the assay on RXF 393 renal is 2.2 µM; in the assay with SR leukemia it was greater than 33.3 µM; with CAKI-1 renal it was 8.19 µM; in the assay on SNB-75 CNS, 1.76 µM; in the assay with OVCAR-5 ovarian it was 6.11 µM; with SW-620 colon, 4.83 µM. Besides, the values for the TGI in the assay on MCF7 breast and in the assay with M14 melanoma were 4.45 µM and 4.1 µM, respectively.
